Measured values: US20200131129A1, “FARNESOID X RECEPTOR AGONISTS AND USES THEREOF” (Metacrine, Inc., priority 2017, published 2020)

molecular target: T1, hFXR (Homo sapiens, UniProt Q96RI1); experiment: In Vitro FXR Assay (TK): hFXR/hRXR TK-ECRE-luc reporter in transfected CV-1 cells; type: cell-based; conditions: CV-1 cells transfected with hFXR, hRXR, 18 hrs incubation, luminescence, maximum efficacy <25% of Fexarmine control also classified as ‘+’
T1 construct: expressed in transfected cells; host or cells: CV-1 cells
T1 sequence (Q96RI1 1-486): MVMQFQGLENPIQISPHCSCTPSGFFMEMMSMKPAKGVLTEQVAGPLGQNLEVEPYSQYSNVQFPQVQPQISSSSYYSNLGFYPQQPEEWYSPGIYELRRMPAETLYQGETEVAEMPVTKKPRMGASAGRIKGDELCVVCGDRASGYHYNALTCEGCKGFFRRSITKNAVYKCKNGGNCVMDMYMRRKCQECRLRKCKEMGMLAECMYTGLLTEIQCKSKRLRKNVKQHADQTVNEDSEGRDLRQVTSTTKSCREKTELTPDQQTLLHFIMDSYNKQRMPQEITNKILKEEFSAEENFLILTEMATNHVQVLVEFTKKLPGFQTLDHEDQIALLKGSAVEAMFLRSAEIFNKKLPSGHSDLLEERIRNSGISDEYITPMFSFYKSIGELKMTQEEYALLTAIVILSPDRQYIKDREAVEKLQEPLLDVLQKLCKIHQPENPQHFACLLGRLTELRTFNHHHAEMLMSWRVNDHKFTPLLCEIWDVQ
T1 sequence (P19793 1-462 partner): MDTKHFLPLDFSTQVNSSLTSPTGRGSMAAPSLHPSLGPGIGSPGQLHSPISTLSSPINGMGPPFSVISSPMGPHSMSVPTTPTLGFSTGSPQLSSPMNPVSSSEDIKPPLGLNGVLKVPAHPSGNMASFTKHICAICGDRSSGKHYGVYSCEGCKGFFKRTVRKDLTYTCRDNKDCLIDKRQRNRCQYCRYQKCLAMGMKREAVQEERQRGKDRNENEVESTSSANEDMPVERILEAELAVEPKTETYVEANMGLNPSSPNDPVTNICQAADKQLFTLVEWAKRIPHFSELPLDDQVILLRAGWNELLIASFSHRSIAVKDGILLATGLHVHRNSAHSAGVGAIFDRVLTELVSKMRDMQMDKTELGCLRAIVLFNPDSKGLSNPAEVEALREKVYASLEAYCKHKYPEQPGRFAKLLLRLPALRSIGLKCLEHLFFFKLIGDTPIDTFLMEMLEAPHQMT
Experimental: Example B-1: In Vitro FXR Assay (TK)
CV-1 cells were seeded at a density of 2,000,000 cells in a T175 flask with DMEM+10% charcoal double-stripped FBS and incubated at 37° C. in 5% CO2 for 18 h (O/N).
After 18 h of incubation, the medium in the T175 flask was changed with fresh DMEM+10% charcoal super-stripped serum. In a polypropylene tube, 2500 μL OptiMEM (Life Technologies, Cat #31985-062) was combined with expression plasmids for hFXR, hRXR, TK-ECRE-luc and pCMX-YFP. The tube was then briefly vortexed and incubated at room temperature for 5 minutes. Transfection reagent (X-tremeGENE HP from Roche, Cat #06 366 236 001) was added to the OptiMEM/plasmid mixture vortexed and incubated at room temperature for 20 minutes. Following incubation, the transfection reagent/DNA mixture complex was added to cells in the T175 flask and the cells were incubated at 37° C. in 5% CO2 for 18 h (0/N).
Compounds were serially diluted in DMSO and added to transfected CV-1 cells. The cells were then incubated for 18 hrs. The next day cells were lysed and examined for luminescence.

| Structure (SMILES) | EC50 [nM] |
| --- | --- |
| COc1ccc([C@H]2CC[C@H](CN(c3cccc(-c4cnn(C)n4)c3)C(=O)[C@H]3CC[C@H](O)CC3)CC2)cc1C [Compound 2.09, trans-4-Hydroxy-N-((trans-4-(4-methoxy-3-methylphenyl)cyclohexyl)methyl)-N-(3-(2-methyl-2H-1,2,3-triazol-4-yl)phenyl)cyclohexanecarboxamide] | ≥ 1000 |
| COc1ccc([C@H]2CC[C@H](CN(c3cccc(-c4ncn(C)n4)c3)C(=O)[C@H]3CC[C@H](O)CC3)CC2)cc1C [Compound 2.10, trans-4-Hydroxy-N-((trans-4-(4-methoxy-3-methylphenyl)cyclohexyl)methyl)-N-(3-(1-methyl-1H-1,2,4-triazol-3-yl)phenyl)cyclohexanecarboxamide] | ≥ 1000 |
| COc1ccc([C@H]2CC[C@H](CN(c3cccc(-c4cn(C)cn4)c3)C(=O)[C@H]3CC[C@H](O)CC3)CC2)cc1C [Compound 2.11, trans-4-Hydroxy-N-((trans-4-(4-methoxy-3-methylphenyl)cyclohexyl)methyl)-i-(3-(1-methyl-1H-imidazol-4-yl)phenyl)cyclohexanecarboxamide] | ≥ 1000 |
| COc1ccc([C@H]2CC[C@H](CN(c3cccc(-c4nsc(C5CC5)n4)c3)C(=O)[C@H]3CC[C@H](O)CC3)CC2)cc1C [Compound 2.12, trans-N-(3-(5-Cyclopropyl-1,2,4-thiadiazol-3-yl)phenyl)-4-hydroxy-N-((trans-4-(4-methoxy-3-methylphenyl)cyclohexyl)methyl)cyclohexanecarboxamide] | 500 to 1000 |
| COc1ccc([C@H]2CC[C@H](CN(c3cccc(-c4cnc(N(C)C)cn4)c3)C(=O)[C@H]3CC[C@H](O)CC3)CC2)cc1C [Compound 2] | ≤ 500 |
| COc1ccc([C@H]2CC[C@H](CN(c3cccc(-c4cc(C)no4)c3)C(=O)[C@H]3CC[C@H](O)CC3)CC2)cc1C [Compound 3, trans-4-Hydroxy-N-((trans-4-(4-methoxy-3-methylphenyl)cyclohexyl)methyl)-N-(3-(3-methylisoxazol-5-yl)phenyl)cyclohexanecarboxamide] | ≤ 500 |
| COc1ccc([C@H]2CC[C@H](CN(c3cccc(-c4ncco4)c3)C(=O)[C@H]3CC[C@H](O)CC3)CC2)cc1C [Compound 3.01, trans-4-Hydroxy-N-((trans-4-(4-methoxy-3-methylphenyl)cyclohexyl)methyl)-N-(3-(oxazol-2-yl)phenyl)cyclohexanecarboxamide] | ≥ 1000 |
| COc1ccc([C@H]2CC[C@H](CN(c3cccc(-n4ccc(C)c4)c3)C(=O)[C@H]3CC[C@H](O)CC3)CC2)cc1C [Compound 4] | ≤ 500 |
| COc1ccc([C@H]2CC[C@H](CN(c3cccc(-c4nnn(C)n4)c3)C(=O)[C@H]3CC[C@H](O)CC3)CC2)cc1C [Compound 5, trans-4-Hydroxy-N-((trans-4-(4-methoxy-3-methylphenyl)cyclohexyl)methyl)-N-(3-(2-methyl-2H-tetrazol-5-yl)phenyl)cyclohexanecarboxamide] | ≥ 1000 |
| COc1ccc([C@H]2CC[C@H](CN(c3cccc(-c4nnc(C)o4)c3)C(=O)[C@H]3CC[C@H](O)CC3)CC2)cc1C [Compound 6, trans-4-Hydroxy-N-((trans-4-(4-methoxy-3-methylphenyl)cyclohexyl)methyl)-N-(3-(5-methyl-1,3,4-oxadiazol-2-yl)phenyl)cyclohexanecarboxamide] | ≥ 1000 |
| COc1ccc([C@H]2CC[C@H](CN(c3cccc(-n4cnc(C)n4)c3)C(=O)[C@H]3CC[C@H](O)CC3)CC2)cc1C [Compound 7, trans-4-Hydroxy-N-((trans-4-(4-methoxy-3-methylphenyl)cyclohexyl)methyl)-N-(3-(3-methyl-1-1,2,4-triazol-1-yl)phenyl)cyclohexanecarboxamide] | 500 to 1000 |
| COc1ccc([C@H]2CC[C@H](CN(c3cccc(-c4cnc(C)o4)c3)C(=O)[C@H]3CC[C@H](O)CC3)CC2)cc1C [Compound 8, trans-4-Hydroxy-N-((trans-4-(4-methoxy-3-methylphenyl)cyclohexyl)methyl)-N-(3-(2-methyloxazol-5-yl)phenyl)cyclohexanecarboxamide] | ≤ 500 |
| COc1ccc([C@H]2CC[C@H](CN(c3cccc(-c4cc(C5CC5)ns4)c3)C(=O)[C@H]3CC[C@H](O)CC3)CC2)cc1C [Compound 9, trans-N-(3-(3-Cyclopropylisothiazol-5-yl)phenyl)-4-hydroxy-N-((trans-4-(4-methoxy-3-methylphenyl)cyclohexyl)methyl)cyclohexanecarboxamide] | ≤ 500 |

Second part, the compound after the results:

| EC50 [nM] | Structure (SMILES) |
| --- | --- |
| ≤ 500 | COc1ccc([C@H]2CC[C@H](CN(c3cccc(-n4cnc(C5CC5)n4)c3)C(=O)[C@H]3CC[C@H](O)CC3)CC2)cc1C [Compound 7.01, trans-N-(3-(3-Cyclopropyl-1H-1,2,4-triazol-1-yl)phenyl)-4-hydroxy-N-((trans-4-(4-methoxy-3-methylphenyl)cyclohexyl)methyl)cyclohexanecarboxamide] |
| 500 to 1000 | COc1ccc([C@H]2CC[C@H](CN(c3cccc(-n4cnc(C)c4)c3)C(=O)[C@H]3CC[C@H](O)CC3)CC2)cc1C [Compound 9.01, trans-4-Hydroxy-N-((trans-4-(4-methoxy-3-methylphenyl)cyclohexyl)methyl)-N-(3-(4-methyl-1H-imidazol-1-yl)phenyl)cyclohexanecarboxamide] |
| 500 to 1000 | COc1ccc([C@H]2CC[C@H](CN(c3cccc(-c4nc(C)no4)c3)C(=O)[C@H]3CC[C@H](O)CC3)CC2)cc1C [Compound 9.02, trans-4-Hydroxy-N-((trans-4-(4-methoxy-3-methylphenyl)cyclohexyl)methyl)-N-(3-(3-methyl-1,2,4-oxadiazol-5-yl)phenyl)cyclohexanecarboxamide] |
| ≥ 1000 | COc1ccc([C@H]2CC[C@H](CN(c3cccc(-c4nc(C)co4)c3)C(=O)[C@H]3CC[C@H](O)CC3)CC2)cc1C [Compound 9.03, trans-4-Hydroxy-N-((trans-4-(4-methoxy-3-methylphenyl)cyclohexyl)methyl)-N-(3-(4-methyloxazol-2-yl)phenyl)cyclohexanecarboxamide] |
| ≤ 500 | COc1ccc([C@H]2CC[C@H](CN(c3cccc(-c4coc(C)n4)c3)C(=O)[C@H]3CC[C@H](O)CC3)CC2)cc1C [Compound 9.04, trans-4-Hydroxy-N-((trans-4-(4-methoxy-3-methylphenyl)cyclohexyl)methyl)-N-(3-(2-methyloxazol-4-yl)phenyl)cyclohexanecarboxamide] |
| 500 to 1000 | COc1ccc([C@H]2CC[C@H](CN(c3cccc(-n4nnc(C)n4)c3)C(=O)[C@H]3CC[C@H](O)CC3)CC2)cc1C [Compound 9.05, trans-4-Hydroxy-N-((trans-4-(4-methoxy-3-methylphenyl)cyclohexyl)methyl)-N-(3-(5-methyl-2H-tetrazol-2-yl)phenyl)cyclohexanecarboxamide] |
| ≤ 500 | CCc1cc(-c2cccc(N(C[C@H]3CC[C@H](c4ccc(OC)c(C)c4)CC3)C(=O)[C@H]3CC[C@H](O)CC3)c2)ns1 [Compound 9.06, trans-N-(3-(5-Ethylisothiazol-3-yl)phenyl)-4-hydroxy-N-((trans-4-(4-methoxy-3-methylphenyl)cyclohexyl)methyl) cyclohexanecarboxamide] |
| 500 to 1000 | COc1ccc([C@H]2CC[C@H](CN(c3cccc(-c4ncsn4)c3)C(=O)[C@H]3CC[C@H](O)CC3)CC2)cc1C [Compound 9.07, trans-N-(3-(1,2,4-Thiadiazol-3-yl)phenyl)-4-hydroxy-N-((trans-4-(4-methoxy-3-methylphenyl)cyclohexyl)methyl) cyclohexanecarboxamide] |
